As usually defined, the inhibition is how much of the control response was suppressed. As a reminder, the IC50 is the concentration that inhibits the measured activity by half.

Structures are written as SMILES. Some results are limits rather than exact numbers.

The target in experiment [1] is AChE enzyme (Homo sapiens, UniProt P22303). Kind of experiment: biochemical. The conditions noted are these: for inhibition at 1000 µM: read-out: AChE% inhibition 10^−3 M; for inhibition at 100 µM: read-out: AChE% inhibition 10^−4 M; for IC50: tested at 10 to 0.001 µM. The class given is biochemical. The source says: (§1) The assay was completed in two steps.
Sequence of AChE enzyme (P22303 32-614): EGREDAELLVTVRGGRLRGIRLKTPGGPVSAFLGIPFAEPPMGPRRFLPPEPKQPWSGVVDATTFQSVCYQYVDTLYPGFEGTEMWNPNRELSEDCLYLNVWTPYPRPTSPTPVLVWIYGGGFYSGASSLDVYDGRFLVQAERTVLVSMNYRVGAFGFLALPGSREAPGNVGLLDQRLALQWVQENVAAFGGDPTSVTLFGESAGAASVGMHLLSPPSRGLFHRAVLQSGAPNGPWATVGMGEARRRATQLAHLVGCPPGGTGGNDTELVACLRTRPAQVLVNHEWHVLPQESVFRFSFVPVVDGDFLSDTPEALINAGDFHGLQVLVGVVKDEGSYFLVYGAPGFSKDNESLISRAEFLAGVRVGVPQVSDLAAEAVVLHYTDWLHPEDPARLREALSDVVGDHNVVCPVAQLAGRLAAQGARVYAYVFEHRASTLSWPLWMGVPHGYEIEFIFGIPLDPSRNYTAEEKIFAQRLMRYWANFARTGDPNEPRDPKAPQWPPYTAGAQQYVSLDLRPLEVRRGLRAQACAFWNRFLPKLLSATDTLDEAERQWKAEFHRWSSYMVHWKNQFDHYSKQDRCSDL
(§2) The potential inhibitory effects of the obtained molecules on the AChE and BChE enzymes was examined using a variation of the Ellman method.[31,33,41–43] Distilled water from the Millipore/Milli-Q purification apparatus was utilized at every stage of the biological activity investigations during the evaluation process. In less than a week, all the solutions required for the biological investigation were meticulously prepared from scratch. A “BioTek-Precision Power (United States)” robotic pipetting system was utilized to distribute the prepared solutions and apply the test compounds and enzyme–substrate solutions to 96-well plates. The “BioTek-Synergy H1 Microplate Reader (United States)” was employed to establish and follow the enzyme protocol for spectrophotometric measurements. Solutions of the compounds were prepared at two different concentrations, 10^−3 M and 10^−4 M, using dimethylsulfoxide (DMSO) as 2% solution, and these were used in biological activity studies.

Experiment [2] concerns the target BChE enzyme (Homo sapiens, UniProt P06276). The experiment is described as follows: biochemical. The following applies: for inhibition at 1000 µM: read-out: BChE% inhibition 10^−3 M; for inhibition at 100 µM: read-out: BChE% inhibition 10^−4 M.
From the text: as §1, §2

Sequence of BChE enzyme (P06276 29-602, species assumed): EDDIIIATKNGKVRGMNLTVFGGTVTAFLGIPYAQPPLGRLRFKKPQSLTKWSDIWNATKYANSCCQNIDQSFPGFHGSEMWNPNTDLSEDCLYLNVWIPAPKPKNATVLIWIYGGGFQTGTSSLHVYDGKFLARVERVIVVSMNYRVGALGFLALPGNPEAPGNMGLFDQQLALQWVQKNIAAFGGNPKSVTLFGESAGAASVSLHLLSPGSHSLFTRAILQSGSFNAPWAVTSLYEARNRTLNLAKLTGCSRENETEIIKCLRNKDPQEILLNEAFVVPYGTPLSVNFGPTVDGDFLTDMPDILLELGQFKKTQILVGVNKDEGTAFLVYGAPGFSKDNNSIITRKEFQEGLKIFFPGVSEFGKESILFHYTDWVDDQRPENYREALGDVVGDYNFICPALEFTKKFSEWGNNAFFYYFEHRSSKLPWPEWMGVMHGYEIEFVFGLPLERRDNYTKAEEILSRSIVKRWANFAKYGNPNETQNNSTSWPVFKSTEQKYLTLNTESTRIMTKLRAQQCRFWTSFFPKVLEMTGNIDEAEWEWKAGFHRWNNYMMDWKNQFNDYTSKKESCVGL

Consider `CC(=NN=c1scc(-c2ccc(C)cc2)n1C)c1ccc(N2CCCCC2)cc1` [D1a, 3-Methyl-2-((1-(4-(piperidin-1-yl)phenyl)ethylidene)hydrazineylidene)-4-(p-tolyl)-2,3-dihydrothiazole], for which, in experiment [1], the inhibition at 1000 µM was determined as 40.5 ± 1.92%, the inhibition at 100 µM was 36.5 ± 1.72% and the IC50 was greater than 1 mM. Moreover, in experiment [2], the IC50 is greater than 1 mM, the inhibition at 1000 µM turned out to be 32.5 ± 1.06% and the inhibition at 100 µM was determined as 20.4 ± 0.984%.
As for `CC(=NN=c1scc(-c2ccc(F)cc2)n1C)c1ccc(N2CCCCC2)cc1` [D1b, 4-(4-Fluorophenyl)-3-methyl-2-((1-(4-(piperidin-1 yl)phenyl)ethylidene)hydrazineylidene)-2,3-dihydrothiazole], in experiment [1], the inhibition at 1000 µM worked out at 37.2 ± 1.54%, the inhibition at 100 µM was 31.1 ± 1.36% and the half-maximal inhibitory concentration (IC50) is greater than 1 mM. In addition, in experiment [2], the half-inhibitory concentration (IC50) is greater than 1 mM, the inhibition at 1000 µM is 30.2 ± 0.936% and the inhibition at 100 µM amounted to 19.6 ± 0.864%.
In the case of `CC(=NN=c1scc(-c2ccc(Cl)cc2)n1C)c1ccc(N2CCCCC2)cc1` [D1d, 4-(4-Chlorophenyl)-3-methyl-2-((1-(4-(piperidin-1-yl)phenyl)ethylidene)hydrazineylidene)-2,3-dihydrothiazole], in experiment [1], the inhibition at 1000 µM was determined as 55.7 ± 2.08%, the inhibition at 100 µM turned out to be 29.6 ± 1.23% and the half-inhibitory concentration (IC50) is greater than 0.1 mM. For the same compound, in experiment [2], the IC50 was greater than 1 mM, the inhibition at 1000 µM turned out to be 23 ± 0.725% and the inhibition at 100 µM turned out to be 15.2 ± 0.734%.
Turning to `COc1ccc(-c2csc(=NN=C(C)c3ccc(N4CCCCC4)cc3)n2C)cc1` [D1e, 4-(4-Methoxyphenyl)-3-methyl-2-((1-(4-(piperidin-1-yl)phenyl)ethylidene)hydrazineylidene)-2,3-dihydrothiazole], in experiment [1] (at concentrations of 1000 and 100 µM), the inhibitory activity result is given as “more than 50%”. For the same compound, in experiment [1], the inhibition at 1000 µM was 92.6 ± 1.8%, the inhibition at 100 µM is 84.1 ± 2.15% and the IC50 came to 0.000613 ± 2.5e-05 mM. Besides, in experiment [2], the IC50 is greater than 1 mM, the inhibition at 1000 µM worked out at 27.6 ± 1.08% and the inhibition at 100 µM was 17.9 ± 0.71%.
Regarding `CC(=NN=c1scc(-c2ccc(Cl)cc2Cl)n1C)c1ccc(N2CCCCC2)cc1` [D1g, 4-(2,4-Dichlorophenyl)-3-methyl-2-((1-(4-(piperidin-1-yl)phenyl)ethylidene)hydrazineylidene)-2,3-dihydrothiazole], in experiment [1], the inhibition at 1000 µM is 63.5 ± 1.96%, the inhibition at 100 µM turned out to be 16.9 ± 0.778% and the half-maximal inhibitory concentration (IC50) was greater than 0.1 mM. In experiment [2], the IC50 was greater than 1 mM, the inhibition at 1000 µM amounted to 36.3 ± 1.56% and the inhibition at 100 µM was found to be 31.1 ± 1.07%.
Regarding `CC(=NN=c1scc(-c2ccc(Cl)c(Cl)c2)n1C)c1ccc(N2CCCCC2)cc1` [D1h, 4-(3,4-Dichlorophenyl)-3-methyl-2-((1-(4-(piperidin-1-yl)phenyl)ethylidene)hydrazineylidene)-2,3-dihydrothiazole], in experiment [1], the inhibition at 1000 µM is 27.6 ± 1.18%, the inhibition at 100 µM turned out to be 14.7 ± 0.646% and the IC50 was greater than 1 mM. In experiment [2], the IC50 was greater than 1 mM, the inhibition at 1000 µM amounted to 31.5 ± 1.31% and the inhibition at 100 µM is 24.3 ± 0.925%.
Regarding `CC(=NN=c1scc(-c2ccc(C)cc2C)n1C)c1ccc(N2CCCCC2)cc1` [D1i, 4-(2,4-Dimethylphenyl)-3-methyl-2-((1-(4-(piperidin-1-yl)phenyl)ethylidene)hydrazineylidene)-2,3-dihydrothiazole], in experiment [1], the inhibition at 1000 µM was 59.3 ± 1.29%, the inhibition at 100 µM is 13.7 ± 0.52% and the concentration for half-maximal inhibition (IC50) is greater than 0.1 mM. Further, in experiment [2], the 50% inhibitory concentration (IC50) was greater than 1 mM, the inhibition at 1000 µM was found to be 40.9 ± 1.86% and the inhibition at 100 µM came to 29.5 ± 0.846%.
For `C=CCn1c(-c2ccc(C)cc2)csc1=NN=C(C)c1ccc(N2CCCCC2)cc1` [D2a, 3-Allyl-2-((1-(4-(piperidin-1-yl)phenyl)ethylidene)hydrazineylidene)-4-(p-tolyl)-2,3-dihydrothiazole], in experiment [1], the inhibition at 1000 µM is 38.6 ± 1.35%, the inhibition at 100 µM came out at 30.1 ± 1.45% and the half-inhibitory concentration (IC50) was greater than 1 mM. In experiment [2], the 50% inhibitory concentration (IC50) is greater than 1 mM, the inhibition at 1000 µM was 30.8 ± 1.07% and the inhibition at 100 µM was determined as 20.9 ± 0.802%.
With `C=CCn1c(-c2ccc(F)cc2)csc1=NN=C(C)c1ccc(N2CCCCC2)cc1` [D2b, 3-Allyl-4-(4-fluorophenyl)-2-((1-(4-(piperidin-1yl)phenyl)ethylidene)hydrazineylidene)-2,3-dihydrothiazole], in experiment [1], the inhibition at 1000 µM worked out at 47.2 ± 2.17%, the inhibition at 100 µM was 41.7 ± 1.96% and the IC50 is greater than 1 mM. For the same compound, in experiment [2], the 50% inhibitory concentration (IC50) was greater than 1 mM, the inhibition at 1000 µM worked out at 38.2 ± 1.66% and the inhibition at 100 µM worked out at 27.4 ± 1.25%.
As for `C=CCn1c(-c2ccc([N+](=O)[O-])cc2)csc1=NN=C(C)c1ccc(N2CCCCC2)cc1` [D2c, 3-Allyl-4-(4-nitrophenyl)-2-((1-(4-(piperidin-1-yl)phenyl)ethylidene)hydrazineylidene)-2,3-dihydrothiazole], in experiment [1], the inhibition at 1000 µM amounted to 67 ± 1.85%, the inhibition at 100 µM turned out to be 31.4 ± 0.932% and the half-inhibitory concentration (IC50) is greater than 0.1 mM. For the same compound, in experiment [2], the IC50 was greater than 1 mM, the inhibition at 1000 µM amounted to 35 ± 1.14% and the inhibition at 100 µM worked out at 30.7 ± 1.15%.
Take `C=CCn1c(-c2ccc(Cl)cc2)csc1=NN=C(C)c1ccc(N2CCCCC2)cc1` [D2d, 3-Allyl-4-(4-chlorophenyl)-2-((1-(4-(piperidin-1 yl)phenyl)ethylidene)hydrazineylidene)-2,3-dihydrothiazole]: in experiment [1], the inhibition at 1000 µM was 31.2 ± 1.32%, the inhibition at 100 µM is 28 ± 0.884% and the half-maximal inhibitory concentration (IC50) was greater than 1 mM. In experiment [2], the concentration for half-maximal inhibition (IC50) is greater than 1 mM, the inhibition at 1000 µM turned out to be 30.5 ± 1.03% and the inhibition at 100 µM was 20 ± 0.926%.
In the case of `C=CCn1c(-c2ccc(OC)cc2)csc1=NN=C(C)c1ccc(N2CCCCC2)cc1` [D2e, 3-Allyl-4-(4-methoxyphenyl)-2-((1-(4-(piperidin-1-yl)phenyl)ethylidene)hydrazineylidene)-2,3-dihydrothiazole], in experiment [1], the inhibition at 1000 µM came out at 39.6 ± 1.76%, the inhibition at 100 µM stood at 25.3 ± 1.06% and the concentration for half-maximal inhibition (IC50) is greater than 1 mM. Besides, in experiment [2], the 50% inhibitory concentration (IC50) is greater than 1 mM, the inhibition at 1000 µM was determined as 25.7 ± 0.963% and the inhibition at 100 µM worked out at 17.2 ± 0.634%.
As to `C=CCn1c(-c2ccc(C#N)cc2)csc1=NN=C(C)c1ccc(N2CCCCC2)cc1` [D2f, 4-(3-Allyl-2-((1-(4-(piperidin-1-yl)phenyl)ethylidene)hydrazineylidene)-2,3-dihydrothiazol-4-yl)benzonitrile], in experiment [1], the inhibition at 1000 µM was 76 ± 2.28%, the inhibition at 100 µM came to 29.8 ± 1.26% and the half-maximal inhibitory concentration (IC50) is greater than 0.1 mM. Besides, in experiment [2], the IC50 was greater than 1 mM, the inhibition at 1000 µM amounted to 21.9 ± 0.855% and the inhibition at 100 µM worked out at 16.5 ± 0.578%.
With `C=CCn1c(-c2ccc(Cl)cc2Cl)csc1=NN=C(C)c1ccc(N2CCCCC2)cc1` [D2g, 3-Allyl-4-(2,4-dichlorophenyl)-2-((1-(4-(piperidin-1-yl)phenyl)ethylidene)hydrazineylidene)-2,3-dihydrothiazole], in experiment [1], the inhibition at 1000 µM is 39.7 ± 1.88%, the inhibition at 100 µM came out at 31.6 ± 1.47% and the IC50 was greater than 1 mM. For the same compound, in experiment [2], the IC50 was greater than 1 mM, the inhibition at 1000 µM amounted to 29.3 ± 1.35% and the inhibition at 100 µM is 24 ± 1.07%.
As for `C=CCn1c(-c2ccc(Cl)c(Cl)c2)csc1=N/N=C(\C)c1ccc(N2CCCCC2)cc1` [D2h, 3-Allyl-4-(3,4-dichlorophenyl)-2-(((E)-1-(4-(piperidin-1-yl)phenyl)ethylidene)hydrazineylidene)-2,3-dihydrothiazole], in experiment [1], the inhibition at 1000 µM came out at 31.5 ± 1.04%, the inhibition at 100 µM was determined as 20.3 ± 0.989% and the half-inhibitory concentration (IC50) was greater than 1 mM. In experiment [2], the IC50 was greater than 1 mM, the inhibition at 1000 µM came out at 36.2 ± 1.36% and the inhibition at 100 µM is 31.5 ± 0.963%.
Consider `C=CCn1c(-c2ccc(C)cc2C)csc1=N/N=C(\C)c1ccc(N2CCCCC2)cc1` [D2i, 3-Allyl-4-(2,4-dimethylphenyl)-2-(((E)-1-(4-(piperidin-1-yl)phenyl)ethylidene)hydrazineylidene)-2,3-dihydrothiazole], for which, in experiment [1], the inhibition at 1000 µM was determined as 28.1 ± 1.25%, the inhibition at 100 µM was 20.5 ± 0.862% and the 50% inhibitory concentration (IC50) is greater than 1 mM. Further, in experiment [2], the half-inhibitory concentration (IC50) is greater than 1 mM, the inhibition at 1000 µM was found to be 42.1 ± 2.02% and the inhibition at 100 µM was determined as 28.7 ± 1.12%.
With `CCn1c(-c2ccc(C)cc2)csc1=NN=C(C)c1ccc(N2CCCCC2)cc1` [D3a, 3-Ethyl-2-((1-(4-(piperidin-1-yl)phenyl)ethylidene)hydrazineylidene)-4-(p-tolyl)-2,3-dihydrothiazole], in experiment [1], the inhibition at 1000 µM worked out at 56.2 ± 1.75%, the inhibition at 100 µM is 37.5 ± 0.921% and the IC50 is greater than 0.1 mM. Also, in experiment [2], the 50% inhibitory concentration (IC50) was greater than 1 mM, the inhibition at 1000 µM turned out to be 45.4 ± 2.09% and the inhibition at 100 µM is 25.3 ± 1%.
Consider `CCn1c(-c2ccc(F)cc2)csc1=NN=C(C)c1ccc(N2CCCCC2)cc1` [D3b, 3-Ethyl-4-(4-fluorophenyl)-2-((1-(4-(piperidin-1-yl)phenyl)ethylidene)hydrazineylidene)-2,3-dihydrothiazole], for which, in experiment [1], the inhibition at 1000 µM came to 40.2 ± 1.85%, the inhibition at 100 µM came to 35.8 ± 1.25% and the IC50 is greater than 1 mM. In experiment [2], the IC50 is greater than 1 mM, the inhibition at 1000 µM stood at 32.6 ± 1.46% and the inhibition at 100 µM turned out to be 22.6 ± 0.964%.

The values above are taken from article PMC12637020, “Synthesis and biological evaluation of novel hydrazone derivatives for the treatment of Alzheimer's disease” (RSC Advances, 2025).
